pEC50: −log10 of the molar value. Read-outs that look alike come from different tables or passages of the source.

One test has as its target IKZF1 (Ikaros) (Homo sapiens (Human), UniProt Q13422+Q96SW2). Briefly: IKZF1 reporter degradation assay (HEK 293T IKZF1-mNeonGreen reporter cell line). Format: cell-based. As to conditions: HEK 293T reporter cells, 24 hour incubation. The source says: (§1) Polycistronic plasmids were constructed for the mammalian expression of fluorescent reporter fusions of human transcription factors IKZF1 (Ikaros), IKZF2 (Helios), and IKZF3 (Aiolos). The respective protein sequences had their C-terminal end joined to a GGGGS linker repeated three times followed by mNeonGreen, P2A sequence, and mScarlet. The DNA sequences of the open reading frames are as follows:
(§2) IKZF1, IKZF2, and IKZF3 constructs were cloned into the UCOE Hygromycin expression vectors (Millipore Sigma). Reporter constructs were transfected using cationic lipid reagents into adherent HEK 293T cells and stable integrants were selected by treatment with 200 μg/mL hygromycin B. Clonal populations were obtained from the population of stable integrants either by limiting dilution or fluorescence activated cell sorting.
(§3) The clonal stable cell lines were maintained under constant 200 μg/mL hygromycin B selection while being passaged for use in the degradation assays. […] The fluorescence intensity of the IKZF1/2/3-mNeonGreen (FITC channel) and mScarlet (PE channel) reporters were routinely analyzed by flow cytometry to confirm consistent expression levels between experiments.
(§4) The IKZF1/IKZF2/IKZF3 degradation assays were carried out by harvesting the HEK 293T reporter cell lines and resuspending the cells in media formulated for reduced background fluorescence (FluoroBrite; Thermo Fisher). The respective cell lines were seeded at a density of 4000 cells/well into black-walled 384-well optical grade assay tissue culture plates. The cells were incubated overnight at 37° C. to allow for attachment to the assay plate. Dilutions of the compounds were prepared in DMSO from 10 mM compound stocks. The assay plates were treated with appropriate concentrations of the compounds by dispensing the DMSO dilutions in quadruplicate wells with an upper limit of 0.5% final DMSO.
(§5) After 24 hour incubation with the compounds, the assay plates were imaged on an ImageXpress Pico microscopy system (cells maintained at 37° C. during imaging) to obtain the fluorescent readouts. The assay plates were imaged in the FITC and Tetramethylrhodamine (TRITC) channels to obtain the mNeonGreen fluorescence intensity (reporter degradation data) and mScarlet fluorescence intensity (for cell segmentation). 293T-IKZF1 and 293T-IKZF3 reporter cell lines were imaged with exposures of 500 milliseconds (ms) for both FITC and TRITC channels, while the 293T-IKZF2 reporter cell line was imaged with exposures of 1000 ms for FITC and 1250 ms for TRITC. The resulting data was analyzed with Cell Reporter Xpress software using the 2-channel cell scoring analysis with a “percent positive” readout. The TRITC channel was selected for the “nuclei” segmentation with a threshold of 20 while the FITC channel was selected for the “Marker 1” segmentation and a threshold of 100 for the IKZF and IKZF3 reporter lines. […] The minimum segmentation width was set to 6 micrometers and the maximum segmentation width was set to 15 micrometers for all cell lines. The DC50 calculations were determined by regression to best fit four-parameter logistic curves using GraphPad Prism.

Test [1] concerns the target human E3 ligase component cereblon (CRBN) (Homo sapiens (Human), UniProt Q96SW2). The experiment in a line: Cereblon (CRBN) target engagement, NanoBRET TE Intracellular E3 Ligase Assay in transfected HEK-293T cells. The method, then: HEK-293T cells were harvested ca. 75% confluent with trypsin and plated (500,000 cells/well) in a 6-well tissue culture plate in 2 mL of Dulbecco's Modified Eagle Medium (DMEM)^+10% Fetal Bovine Serum (FBS) and incubated overnight at 37° C.
The NanoLue-CRBN fusion vector (Nluc-CRBN; Promega) contains the coding region of human E3 ligase component cereblon (CRBN) fused to the C-terminus of the NanoLuc luciferase coding region. A mixture of 10 ng Nluc-CRBN and 990 ng DDB1 Expression Vector (Promega) was added to 125 μL Opti-Minimum Essential Medium (Opti-MEM™; Thermo Fisher) along with 2 μL P3000 reagent (Thermo Fisher) in a 1.5 mL epppendorf tube. This solution was added to Lipofectamine 3000 transfection reagent (5 μL; Thermo Fisher) in Opti-MEM (125 μL), mixed well, and incubated for 15 minutes at room temperature. The transfection mixture was added dropwise to cells and incubated overnight at 37° C., 5% CO2. Following transfection, cells were washed once with PBS, and trypsin (250 μL) was added and incubated 30-45 see to dislodge cells. Complete media (2 mL) was added to resuspend cells to form a single cell suspension. Cells were centrifuged at 320×g for 5 min at room temperature, the supernatant was removed, and the cell pellet resuspended in Opti-MEM (3 mL; wash step repeated ×2). After final resuspension in 5 mL Opti-MEM, cells were counted and resuspended at 200,000 cells/mL in Opti-MEM.
Cereblon target engagement was monitored by Bioluminescence Resonance Energy Transfer (BRET) in transfected HEK-293T cells using the NanoBRET TE Intracellular E3 Ligase Assay (Promega). Briefly, 384-well plates (white opaque plates, Corning 3574, low binding surface) were seeded with transfected HEK-293T cells (38 μl/well). 2 μL of 10 μM CRBN tracer (diluted 1:5 in Tracer Dilution Buffer) was added to each well. Plates were centrifuged at 320×g for 1 min at room temperature. […] Plates were shaken for 2 minutes on a microplate shaker to mix compounds. Plates were centrifuged at 320×g for 1 min at room temperature, and subsequently incubated for 2 hours at 37° C.
After incubation, plates were allowed to cool to room temperature for 15 minutes. 20 μL of 3X Complete NanoBRET™ Nano-Glo® Substrate plus Inhibitor Solution (Promega, 1:166 Substrate and 1:500 dilution of Extracellular NanoLuc® Inhibitor diluted in Opti-MEM) were added to each well, Plates were incubated with shaking at room temperature for 3 minutes covered with foil. Plates were read on a CLARIOstar microplate reader (BMG LabTech), measuring at 450 nm (donor emission) and 610 nm (acceptor emission). The IC50 values were determined by regression to best fit four-parameter logistic curves using GraphPad Prism.
A general note: BRET reads energy transfer from a luciferase to a nearby fluorophore.

A further test addresses IKZF2 (Helios) (Homo sapiens (Human), UniProt Q96SW2+Q9UKS7). Briefly: IKZF2 reporter degradation assay (HEK 293T IKZF2-mNeonGreen reporter cell line). Format: cell-based. Conditions: 24 hour incubation; for inhibition at 1 µM: HEK-293T, 24 h.
Description: as §1, §2, §3, §4, §5

Another test has as its target IKZF3 (Aiolos) (Homo sapiens (Human), UniProt Q96SW2+Q9UKT9). The experiment in a line: IKZF3 reporter degradation assay (HEK 293T IKZF3-mNeonGreen reporter cell line). It counts as cell-based. As to conditions: HEK 293T reporter cells, 24 hour incubation.
Description: as §1, §2, §3, §4, §5

The mark [2] stands for this setting: Table 3, 2 hours at 37° C., read-out: CRBN Binding EC50.
The mark [3] stands for this setting: second (untitled) table after Table 3, read-out: CRBN Binding EC50.
Where [4] appears, read: Table 3, HEK 293T reporter cells.
[5] abbreviates: second (untitled) table after Table 3.

Chain of IKZF3 (Aiolos) (Q9UKT9 whole entry): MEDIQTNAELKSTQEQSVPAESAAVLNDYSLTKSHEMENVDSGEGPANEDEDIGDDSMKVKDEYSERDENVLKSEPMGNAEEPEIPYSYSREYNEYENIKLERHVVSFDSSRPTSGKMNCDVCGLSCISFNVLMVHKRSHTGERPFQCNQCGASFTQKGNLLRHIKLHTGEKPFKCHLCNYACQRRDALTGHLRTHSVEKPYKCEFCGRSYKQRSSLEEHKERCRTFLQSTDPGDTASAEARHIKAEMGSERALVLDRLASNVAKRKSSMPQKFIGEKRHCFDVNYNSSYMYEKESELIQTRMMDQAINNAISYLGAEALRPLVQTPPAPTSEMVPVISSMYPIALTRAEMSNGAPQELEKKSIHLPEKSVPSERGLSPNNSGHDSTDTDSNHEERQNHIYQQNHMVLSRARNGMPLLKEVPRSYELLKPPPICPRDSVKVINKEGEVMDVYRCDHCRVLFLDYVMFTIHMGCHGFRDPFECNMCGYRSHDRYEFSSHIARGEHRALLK
Chain of IKZF3 (Aiolos) (Q96SW2 whole entry): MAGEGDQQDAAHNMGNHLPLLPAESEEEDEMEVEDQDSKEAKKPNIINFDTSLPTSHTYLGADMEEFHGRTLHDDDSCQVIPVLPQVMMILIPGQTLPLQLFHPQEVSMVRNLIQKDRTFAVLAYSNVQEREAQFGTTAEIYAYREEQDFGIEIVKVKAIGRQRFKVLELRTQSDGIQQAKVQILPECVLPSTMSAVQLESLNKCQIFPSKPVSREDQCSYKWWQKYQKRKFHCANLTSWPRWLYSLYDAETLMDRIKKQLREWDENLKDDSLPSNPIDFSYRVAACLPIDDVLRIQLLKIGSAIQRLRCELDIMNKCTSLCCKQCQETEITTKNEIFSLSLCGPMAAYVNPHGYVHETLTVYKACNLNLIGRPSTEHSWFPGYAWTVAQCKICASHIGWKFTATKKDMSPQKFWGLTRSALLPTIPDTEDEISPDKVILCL
Chain of IKZF3 (Aiolos) (Q16531 whole entry partner): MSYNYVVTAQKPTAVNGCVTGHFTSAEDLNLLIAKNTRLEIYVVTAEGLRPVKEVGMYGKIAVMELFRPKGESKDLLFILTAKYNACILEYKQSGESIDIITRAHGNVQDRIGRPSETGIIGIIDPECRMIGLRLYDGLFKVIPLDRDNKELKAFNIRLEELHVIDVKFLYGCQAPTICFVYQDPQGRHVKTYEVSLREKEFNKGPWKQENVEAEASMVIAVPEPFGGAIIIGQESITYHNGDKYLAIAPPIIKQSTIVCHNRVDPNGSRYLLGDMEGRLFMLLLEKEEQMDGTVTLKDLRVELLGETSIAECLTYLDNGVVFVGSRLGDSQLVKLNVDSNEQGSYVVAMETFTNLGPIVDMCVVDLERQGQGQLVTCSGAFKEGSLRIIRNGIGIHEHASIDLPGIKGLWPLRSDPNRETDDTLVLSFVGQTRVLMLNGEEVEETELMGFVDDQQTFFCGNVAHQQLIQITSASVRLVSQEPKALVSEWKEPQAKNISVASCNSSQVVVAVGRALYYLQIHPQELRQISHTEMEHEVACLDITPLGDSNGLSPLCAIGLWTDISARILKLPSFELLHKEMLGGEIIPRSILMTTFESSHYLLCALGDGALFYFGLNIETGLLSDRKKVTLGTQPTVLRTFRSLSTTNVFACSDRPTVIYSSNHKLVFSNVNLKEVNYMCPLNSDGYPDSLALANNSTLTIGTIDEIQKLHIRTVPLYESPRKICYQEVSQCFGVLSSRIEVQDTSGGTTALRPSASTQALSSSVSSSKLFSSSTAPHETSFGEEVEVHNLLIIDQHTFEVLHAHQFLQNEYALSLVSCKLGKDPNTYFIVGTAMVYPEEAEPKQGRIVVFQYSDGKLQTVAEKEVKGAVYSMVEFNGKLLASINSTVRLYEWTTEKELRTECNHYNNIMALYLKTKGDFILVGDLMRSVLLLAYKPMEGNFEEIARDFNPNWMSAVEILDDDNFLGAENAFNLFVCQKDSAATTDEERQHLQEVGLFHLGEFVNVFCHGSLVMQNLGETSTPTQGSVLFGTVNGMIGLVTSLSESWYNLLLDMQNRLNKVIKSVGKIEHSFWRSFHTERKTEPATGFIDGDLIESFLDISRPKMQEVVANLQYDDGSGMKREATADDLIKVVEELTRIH
Chain of IKZF2 (Helios) (Q9UKS7 whole entry): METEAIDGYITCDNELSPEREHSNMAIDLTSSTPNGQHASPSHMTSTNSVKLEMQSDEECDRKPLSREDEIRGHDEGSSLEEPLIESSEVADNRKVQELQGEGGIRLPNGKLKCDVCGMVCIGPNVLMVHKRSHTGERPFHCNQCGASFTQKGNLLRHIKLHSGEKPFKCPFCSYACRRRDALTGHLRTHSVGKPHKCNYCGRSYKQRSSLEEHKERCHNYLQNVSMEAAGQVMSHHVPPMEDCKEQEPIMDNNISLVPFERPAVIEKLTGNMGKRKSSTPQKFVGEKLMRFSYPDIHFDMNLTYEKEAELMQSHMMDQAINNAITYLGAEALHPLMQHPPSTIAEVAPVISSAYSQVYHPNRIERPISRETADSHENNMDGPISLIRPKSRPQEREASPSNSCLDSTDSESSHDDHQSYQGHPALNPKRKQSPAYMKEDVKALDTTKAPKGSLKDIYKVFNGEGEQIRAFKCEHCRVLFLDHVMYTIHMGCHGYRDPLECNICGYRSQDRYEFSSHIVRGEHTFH
Chain of IKZF2 (Helios) (Q96SW2 whole entry): as the sequence (Q96SW2 whole entry) above
Chain of IKZF2 (Helios) (Q16531 whole entry partner): as the sequence (Q16531 whole entry partner) above
Chain of IKZF1 (Ikaros) (Q13422 whole entry, the tested form may be a part): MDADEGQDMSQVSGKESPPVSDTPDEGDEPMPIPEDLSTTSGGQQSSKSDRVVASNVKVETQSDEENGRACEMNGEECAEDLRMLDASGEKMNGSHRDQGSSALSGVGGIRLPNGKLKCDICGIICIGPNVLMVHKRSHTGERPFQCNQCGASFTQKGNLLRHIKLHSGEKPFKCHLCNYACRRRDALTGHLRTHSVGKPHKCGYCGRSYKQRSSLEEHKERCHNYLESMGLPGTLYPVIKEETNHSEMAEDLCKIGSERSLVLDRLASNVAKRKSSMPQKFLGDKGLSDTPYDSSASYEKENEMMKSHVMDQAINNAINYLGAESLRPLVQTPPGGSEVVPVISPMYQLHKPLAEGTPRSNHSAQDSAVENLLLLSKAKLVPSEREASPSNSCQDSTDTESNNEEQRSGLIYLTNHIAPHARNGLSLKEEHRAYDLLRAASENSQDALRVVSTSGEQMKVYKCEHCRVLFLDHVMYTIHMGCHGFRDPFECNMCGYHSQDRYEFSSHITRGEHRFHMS
Chain of IKZF1 (Ikaros) (Q96SW2 whole entry, the tested form may be a part): as the sequence (Q96SW2 whole entry) above
Chain of IKZF1 (Ikaros) (Q16531 whole entry partner, the tested form may be a part): as the sequence (Q16531 whole entry partner) above
Chain of human E3 ligase component cereblon (CRBN) (Q96SW2 whole entry, the tested form may be a part): as the sequence (Q96SW2 whole entry) above
Chain of human E3 ligase component cereblon (CRBN) (Q16531 whole entry partner, the tested form may be a part): as the sequence (Q16531 whole entry partner) above

For the compound `O=C1CCC(N2Cc3cc(O[C@H]4CCCC[C@@H]4N4CC(C5CCCC(F)(F)C5)C4)ccc3C2=O)C(=O)N1` (stereo partly drawn) [Compound 20, 3-(5-(((1S,2S)-2-(3-(3,3-difluorocyclohexyl)azetidin-1-yl)cyclohexyl)oxy)-1-oxoisoindolin-2-yl)piperidine-2,6-dione], the DC50 was over 30000 nM at IKZF1 (Ikaros), 3 nM on IKZF2 (Helios) (HEK 293T reporter cells) and over 30000 nM on IKZF3 (Aiolos). The negative logarithm of the EC50 (pEC50) in test [1] (setting [2]) and in test [1] (setting [3]) was 8.40 in each case. The inhibition at 1 µM against IKZF2 (Helios) (setting [4]) and against IKZF2 (Helios) (setting [5]) was 85% each time.

For `O=C1CCC(N2Cc3cc(O[C@H]4CCCC[C@@H]4N4CC(C5CCC(OC(F)F)CC5)C4)ccc3C2=O)C(=O)N1` (stereo partly drawn) [Compound 21, 3-(5-(((1S,2S)-2-(3-(4-(difluoromethoxy)cyclohexyl)azetidin-1-yl)cyclohexyl)oxy)-1-oxoisoindolin-2-yl)piperidine-2,6-dione], the DC50 at IKZF1 (Ikaros) is over 30000 nM; on IKZF2 (Helios) (HEK 293T reporter cells) it was 2 nM; at IKZF3 (Aiolos), 6 nM. In addition, the pEC50 in test [1] (setting [2]) and in test [1] (setting [3]) was 9.00 in each case. Besides, the inhibition at 1 µM at IKZF2 (Helios) (setting [4]) and against IKZF2 (Helios) (setting [5]) was 86.7% throughout. For the same compound, the “IKZF3% Degradation @ 1 μM” value at IKZF3 (Aiolos) (1 μM) worked out at 32.4%.

Turning to `O=C1CCC(N2Cc3cc(O[C@H]4CCC[C@@H]4N4CC(C5CC5)C4)ccc3C2=O)C(=O)N1` (stereo partly drawn) [Compound 22, 3-(5-(((1S,2S)-2-(3-cyclopropylazetidin-1-yl)cyclopentyl)oxy)-1-oxoisoindolin-2-yl)piperidine-2,6-dione], the figures for the DC50 at IKZF1 (Ikaros), at IKZF2 (Helios) (HEK 293T reporter cells) and at IKZF3 (Aiolos) were over 30000 nM, 9 nM and over 30000 nM, respectively. Besides, the pEC50 in test [1] (setting [2]) and in test [1] (setting [3]) was 7.66 in each case. Moreover, the inhibition at 1 µM against IKZF2 (Helios) (setting [4]) and against IKZF2 (Helios) (setting [5]) was 82.6% throughout.

Regarding `O=C1CCC(N2Cc3c(ccc(O[C@H]4CCCC[C@@H]4N4CC(C5CC5)C4)c3F)C2=O)C(=O)N1` (stereo partly drawn) [Compound 24, 3-(5-(((1S,2S)-2-(3-cyclopropylazetidin-1-yl)cyclohexyl)oxy)-4-fluoro-1-oxoisoindolin-2-yl)piperidine-2,6-dione], the DC50 on IKZF1 (Ikaros) is over 30000 nM; at IKZF2 (Helios) (HEK 293T reporter cells), 18 nM; at IKZF3 (Aiolos), over 30000 nM. Also, the pEC50 in test [1] (setting [2]) and in test [1] (setting [3]) was 7.31 throughout. The inhibition at 1 µM against IKZF2 (Helios) (setting [4]) and against IKZF2 (Helios) (setting [5]) was 85.8% throughout.

On to `O=C1CCC(N2Cc3c(ccc(O[C@H]4CCCC[C@@H]4N4CC(C5CCC5)C4)c3F)C2=O)C(=O)N1` (stereo partly drawn) [Compound 25, 3-(5-(((1S,2S)-2-(3-cyclobutylazetidin-1-yl)cyclohexyl)oxy)-4-fluoro-1-oxoisoindolin-2-yl)piperidine-2,6-dione], for which the half-maximal degradation concentration (DC50) on IKZF1 (Ikaros) was over 30000 nM; at IKZF2 (Helios) (HEK 293T reporter cells), 10 nM; on IKZF3 (Aiolos) it was over 30000 nM. Also, the pEC50 in test [1] (setting [2]) and in test [1] (setting [3]) was 7.55 throughout. The inhibition at 1 µM against IKZF2 (Helios) (setting [4]) and against IKZF2 (Helios) (setting [5]) was 86.7% in each case.

Take `O=C1CCC(N2Cc3cc(O[C@H]4CCCC[C@@H]4N4CC(C5CC5)C4)c(F)cc3C2=O)C(=O)N1` (stereo partly drawn) [Compound 26, 3-(5-(((1S,2S)-2-(3-cyclopropylazetidin-1-yl)cyclohexyl)oxy)-6-fluoro-1-oxoisoindolin-2-yl)piperidine-2,6-dione]: the figures for the DC50 at IKZF1 (Ikaros), on IKZF2 (Helios) (HEK 293T reporter cells) and on IKZF3 (Aiolos) were over 30000 nM, 25 nM and over 30000 nM, respectively. Further, the negative logarithm of the EC50 (pEC50) in test [1] (setting [2]) and in test [1] (setting [3]) was 7.80 throughout. In addition, the inhibition at 1 µM against IKZF2 (Helios) (setting [4]) and on IKZF2 (Helios) (setting [5]) was 77.8% in each case.

Take `O=C1CCC(N2Cc3cc(O[C@H]4CCCC[C@@H]4N4CC(C5CCC5)C4)c(F)cc3C2=O)C(=O)N1` (stereo partly drawn) [Compound 27, 3-(5-(((1S,2S)-2-(3-cyclobutylazetidin-1-yl)cyclohexyl)oxy)-6-fluoro-1-oxoisoindolin-2-yl)piperidine-2,6-dione]: the DC50 at IKZF1 (Ikaros) is over 30000 nM; on IKZF2 (Helios) (HEK 293T reporter cells), 20 nM; at IKZF3 (Aiolos), over 30000 nM. In addition, the pEC50 in test [1] (setting [2]) and in test [1] (setting [3]) was 7.74 throughout. Also, the inhibition at 1 µM against IKZF2 (Helios) (setting [4]) and against IKZF2 (Helios) (setting [5]) was 84.1% in each case.

The term DC50 denotes the midpoint of the concentration-degradation curve. In general, pEC50 refers to −log10 of the EC50, conventionally taken in molar units. One may read the inhibition as the drop in the measured response relative to a control, in per cent. Read a high inhibition as a strong effect.
